Data on 1 compound can be found in publication PMC11403612, “Preparation and Preclinical Characterization of a Simple Ester for Dual Exogenous Supply of Lactate and Beta-hydroxybutyrate” (Journal of Agricultural and Food Chemistry, 2024).

The nature of data set [1]: Hepatocyte stability of LaKe, human. It counts as in vitro ADME. As to conditions: cryopreserved hepatocytes.
Data set [2] relates to blood glucose. Kind of data set: Blood glucose in extended pharmacokinetics study. It counts as in vivo, SD rats. As to conditions: high-dose LaKe exposure; continuous ingestion of 5% glucose water. Here is the method: (§1) Animals (SD rats, both male and female, 7–9 weeks) were individually housed from 24 h before dosing until the end of the study. Food was withdrawn the night before initiation of study; following food withdrawal, animals were maintained on glucose water containing 5% w/v glucose and 1% saline to suppress endogenous ketone production throughout the study. Food was returned 8 h post-test article dosing. Animals were monitored for distress or notable changes in behavior during the study. The animals were euthanized by CO2 inhalation 2 h after the last sample collection time point.
Blood collection was performed by jugular vein cannulation of each animal and divided into two parts. About 10–15 μL of blood was used for the analysis of glucose by glucometer measurement. About 0.20 mL of blood was collected into prechilled commercial EDTA-K2 tubes containing 5 μL of the esterase inhibitor (100 mM PMSF in ethanol, 40 mg/mL NaF and 120 mg/mL […] in water = 5:95(v/v). All blood samples were placed on wet ice until centrifugation.

Data set [3] concerns N-L-lactoyl-phenylalanine (Lac-Phe). Kind of data set: Plasma N-L-lactoyl-phenylalanine after oral LaKe in rats. As to conditions: 4.5 g/kg oral. The data set is classed as in vivo, Sprague–Dawley rats. Here is the method: Male Sprague–Dawley rats (300–350g, Taconic, Ry, Denmark) were kept for acclimatization at a constant temperature of 23 °C with a 12 h light-dark cycle and with unlimited access to food and water. All animal handling was in accordance with national guidelines in Denmark and the guidelines from the Directive 2010/63/EU of the European Parliament on the protection of animals used for scientific purposes, and all experiments conformed to Danish Law (Act. No. 1306 of 23/11/2007). The experimental protocol was approved by the Danish Animal Expectorate (2018-15-0201-01475).
The rats were randomly selected to receive either LaKe (n = 8) or placebo (n = 8). […]
Concentrations of non-esterified free fatty acids (FFA) were measured using a NEFA-HR(2) kit (Wako, Chemicals Gmbh, Germany). Absorbance was measured by spectrometry (PHERAstar FS, BMG LABTECH, […]
Quantification of N-L-lactoyl phenylalanine (Lac-Phe) by LC-MS/MS […]
Pure calibrant samples were prepared from an authentic standard compound (N-L-lactoyl phenylalanine), using the plasma sample preparation method at concentrations equivalent to […] in the original sample. The lower limit of quantification for N-L-lactoyl phenylalanine (Lac-Phe) quantification was estimated to 10 nM. […]

Data set [4] concerns rats. Put plainly: Behaviour and tolerability observations in extended pharmacokinetics study. The data set is classed as in vivo. The method, then:
as §1

Molecules are shown by their SMILES.

The term half-life denotes the time needed for the level to fall by half in the phase considered. As to `CC(O)CCOC(=O)C(C)O` (stereo not shown) [LaKe, 3-hydroxybutyl 2-hydroxypropanoate], in data set [1], the half-life at 0.1 mg/mL is under 30 min. For the same compound, the blood glucose entry in data set [2] is recorded as “nonsignificant trend toward lower glucose levels”. Further, the “change in plasma Lac-Phe” value in data set [3] is listed as “increase”. Moreover, the behaviour observations entry was “slightly reduced activity and a hunched posture” in data set [4] (12 g/kg, at 2 and 8 h following administration, some of the rats, normalized at 10 h); “normal behavior was observed at all time points” in data set [4] (lower doses (1.3 g/kg and 4.1 g/kg), all time points). In addition, the signs of toxicity entry in data set [4] (10 h following administration, any of the doses) is “No signs of toxicity or deviation from normal behavior”. For the same compound, the overall tolerability result in data set [4] (rats, oral, up to 12 g/kg) is recorded as “well tolerated”.
